Data reported in patent publication US20260174769A1, “MACROCYCLIC COMPOUNDS AND METHODS OF USE” (AMGEN INC., priority 2022, published 2026).
Where a name gives a salt, the structure may show the parent alone.

Biological target: His-tagged KRAS G12D protein (Homo sapiens, UniProt P01116, G12D)
Assay: KRAS G12D TR-FRET Assay
Format: binding
Conditions: TR-FRET binding
Description: The His-tagged KRAS G12D protein (Amgen) was diluted to 20 nM in Assay Buffer (20 mM HEPES, pH 7.4, 10 mM MgCl2, 50 mM NaCl, 0.1% BSA, 0.01% Tween-20, 10 μM GDP) and 2 μL was added to the appropriate wells of the 384-well plate. The plate was incubated for 30 minutes at room temperature. Biotinylated KRPep-2d substrate (Amgen) was diluted to 20 nM in Assay Buffer and 2 μL was added to all wells and incubated for 1 hour at room temperature. Detection Reagent (0.4 nM LANCE Eu-W1024 Anti-6×His (Perkin Elmer AD0401), 5 nM streptavidin-d2 (Cisbio 610SADLA)) was prepared in Assay Buffer, then 4 μL was added to the plate and incubated for 1 hour at room temperature.

His-tagged KRAS G12D protein, sequence (P01116 1-188 isoform P01116-2 G12D): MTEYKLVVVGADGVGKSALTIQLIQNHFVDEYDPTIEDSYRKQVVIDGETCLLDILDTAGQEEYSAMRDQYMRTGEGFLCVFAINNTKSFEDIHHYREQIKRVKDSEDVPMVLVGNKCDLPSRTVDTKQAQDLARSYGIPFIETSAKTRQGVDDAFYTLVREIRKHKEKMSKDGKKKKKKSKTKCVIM

Compound | IC50 [µM]
CN(C)CC1(COc2nc3c4cnc(c(F)c4n2)-c2c(c(Cl)cc4[nH]ncc24)CCCOC(=O)O[C@@]2(C)COCCN3C2)CC1 (single isomer, unassigned) [Example 332] | 3.24
Cc1cc2[nH]ncc2c2c1CCC[C@@H](F)C(=O)N(C)[C@@H]1CCCN(C1)c1nc(OC[C@@]34CCCN3C[C@H](F)C4)nc3c(F)c-2ncc13 (single isomer, unassigned) [Example 52] | 0.019
C[C@]12CCCN(C1)c1nc(OC[C@@]34CCCN3C[C@H](F)C4)nc3c(F)c(ncc13)-c1cccc3ccc(F)c(c13)CCOC(=O)N2 (single isomer, unassigned) [Example 78] | 3.81
O=C1CCCCc2c(Cl)cccc2-c2ncc3c(nc(OC[C@@]45CCCN4C[C@H](F)C5)nc3c2F)N2CC[C@@H]3CCN1[C@@H]3C2 (single isomer, unassigned) [Example 163] | 2.84
Cc1cc2[nH]ncc2c2c1CCCCO[C@H](C)[C@@H]1CN(CCO1)c1nc(OC[C@@]34CCCN3C[C@H](F)C4)nc3c(F)c-2ncc13 (single isomer, unassigned) [Example 243] | 4.48
O=C1OC/C=C/c2c(Cl)cc3[nH]ncc3c2-c2ncc3c(nc(OC[C@@]45CCCN4C[C@H](F)C5)nc3c2F)N2CCC[C@H](C2)O1 (single isomer, unassigned) [Example 116] | 0.017
C[C@@H]1CCOC[C@H]2CN(CCO2)c2nc(OC[C@@]34CCCN3C[C@H](F)C4)nc3c(F)c(ncc23)-c2c(c(Cl)cc3[nH]ncc23)C1 (single isomer, unassigned) [Example 253] | 0.009
CN(C)CC1(COc2nc3c4cnc(c(F)c4n2)-c2c(c(Cl)cc4[nH]ncc24)CCCOC(=O)O[C@]2(C)COCCN3C2)CC1 (single isomer, unassigned) [Example 331] | 0.005
CN1C(=O)COCC[C@H]2CCc3cc4[nH]ncc4c(c32)-c2ncc3c(nc(OC[C@@]45CCCN4C[C@H](F)C5)nc3c2F)N2CCC[C@@H]1C2 (single isomer, unassigned) [Example 278] | 19.3
Cc1cc2[nH]ncc2c2c1C[C@@H](C)COC(=O)O[C@@H]1CCCN(C1)c1nc(OC[C@@]34CCCN3C[C@H](F)C4)nc3c(F)c-2ncc13 (single isomer, unassigned) [Example 214] | 0.022
Cc1cc2[nH]ncc2c2c1CCCC(F)C(=O)N[C@@H]1CCCCN(C1)c1nc(OC[C@@]34CCCN3C[C@H](F)C4)nc3c(F)c-2ncc13 (single isomer, unassigned) [Example 160] | 0.004
O=C1CCCCc2c(Cl)cccc2-c2ncc3c(nc(OC[C@@]45CCCN4C[C@H](F)C5)nc3c2F)N2CC[C@H]3CCN1[C@H]3C2 (single isomer, unassigned) [Example 162] | 0.037
CN1CCC[C@H]1COc1nc2c3cnc(c(F)c3n1)-c1c(c(Cl)cc3[nH]ncc13)CCCOC(=O)O[C@@]1(C)COCCN2C1 (single isomer, unassigned) [Example 180] | 1.51
C[C@@]12COCCN(C1)c1nc(OC[C@@]34CCCN3C[C@H](F)C4)nc3c(F)c(ncc13)-c1c3c(cc4[nH]ncc14)CC[C@@H]3CCOC(=O)O2 (single isomer, unassigned) [Example 366] | 0.938
O=C1CCCc2c(F)ccc3cccc(c23)-c2ncc3c(nc(OC[C@@]45CCCN4C[C@H](F)C5)nc3c2F)N2CC[C@H]3CCN1[C@H]3C2 (single isomer, unassigned) [Example 72] | 0.003
Cc1cc2[nH]ncc2c2c1CCCOC(=O)N[C@]1(C)CCCCN(C1)c1nc(OC[C@@]34CCCN3C[C@H](F)C4)nc3c(F)c-2ncc13 (single isomer, unassigned) [Example 292] | 0.004
O=C1OCC[C@@H]2CCc3cc4[nH]ncc4c(c32)-c2ncc3c(nc(OC[C@@]45CCCN4C[C@H](F)C5)nc3c2F)N2CCOC[C@H](C2)O1 (single isomer, unassigned) [Example 367] | 0.004
C[C@@]12CCCN(C1)c1nc(OC[C@@]34CCCN3C[C@H](F)C4)nc3c(F)c(ncc13)-c1cc(O)cc3c1[C@@H](CCCC(=O)N2)CCC3 (single isomer, unassigned) [Example 27, 2,2,2-trifluoroacetate salt] | 0.007
CN1CCC[C@H]1COc1nc2c3cnc(c(F)c3n1)-c1c(c(Cl)cc3[nH]ncc13)CCCOC(=O)O[C@]1(CF)COCCN2C1 (single isomer, unassigned) [Example 338] | 0.007
Cc1cc2[nH]ncc2c2c1CCCCO[C@H](C)[C@H]1CN(CCO1)c1nc(OC[C@@]34CCCN3C[C@H](F)C4)nc3c(F)c-2ncc13 (single isomer, unassigned) [Example 241] | 1.29
O=C1N[C@@H]2CCCCN(C2)c2nc(OC[C@@]34CCCN3C[C@H](F)C4)nc3c(F)c(ncc23)-c2c3c(cc4[nH]ncc24)CC[C@H]3CCO1 (single isomer, unassigned) [Example 301] | 0.005
C[C@]12CCCCN(C1)c1nc(OC[C@@]34CCCN3C[C@H](F)C4)nc3c(F)c(ncc13)-c1c(c(Cl)cc3[nH]ncc13)CCCCC(=O)N2 (single isomer, unassigned) [Example 165] | 12.7

Now from value to compound:

IC50 [µM] | Compound
0.005 | O=C1OCCCc2c(Cl)cc3[nH]ncc3c2-c2ncc3c(nc(OC[C@@]45CCCN4C[C@H](F)C5)nc3c2F)N2CCOC[C@](CF)(C2)O1 (single isomer, unassigned) [Example 311]
1.59 | [2H]C([2H])([2H])[C@]12COCCN(C1)c1nc(OC[C@@]34CCCN3C[C@H](F)C4)nc3c(F)c(ncc13)-c1c(c(Cl)cc3[nH]ncc13)CCCOC(=O)O2 (single isomer, unassigned) [Example 354]
0.287 | O=C1OCCCc2c(Cl)cc3[nH]ncc3c2-c2ncc3c(nc(OC[C@@]45CCCN4C[C@H](F)C5)nc3c2F)N2CC[C@@H]3CCN1[C@@H]3C2 (single isomer, unassigned) [Example 176]
0.007 | Fc1c2ncc3c(nc(OC[C@@]45CCCN4C[C@H](F)C5)nc13)N1CCOC[C@H](COCCCCc3c(Cl)cc4[nH]ncc4c3-2)C1 (single isomer, unassigned) [Example 136]
0.006 | Fc1c2ncc3c(nc(OC[C@@]45CCCN4C[C@H](F)C5)nc13)N1CCO[C@]3(C1)C[C@@H](C3)OCCCCc1c(Cl)cc3[nH]ncc3c1-2 (single isomer, unassigned) [Example 261]
0.003 | O=C1OCCCc2c(Cl)cc3[nH]ncc3c2-c2ncc3c(nc(OC[C@@]45CCCN4C[C@H](F)C5)nc3c2F)N2CC[C@H]3CCN1[C@H]3C2 (single isomer, unassigned) [Example 177]
2.25 | Fc1c2ncc3c(nc(OC[C@@]45CCCN4C[C@H](F)C5)nc13)N1CCCC[C@@H](C1)c1cnn(n1)CCCc1c(Cl)cc3[nH]ncc3c1-2 (single isomer, unassigned) [Example 295]
1.91 | O=C1N[C@H]2C[C@@H](O)CN(C2)c2nc(OC[C@@]34CCCN3C[C@H](F)C4)nc3c(F)c(ncc23)-c2c(c(Cl)cc3[nH]ncc23)CCCO1 (single isomer, unassigned) [Example 285]

Same assay, conditions: TR-FRET; read-out: KRAS G12D Binding IC50

Compound | IC50 [µM]
Fc1c2ncc3c(nc(OC[C@@]45CCCN4C[C@H](F)C5)nc13)N1CCOC[C@@H](Cc3ncc(o3)CCc3c(Cl)cc4[nH]ncc4c3-2)C1 (single isomer, unassigned) [Example 376] | 0.016
Fc1c2ncc3c(nc(OC[C@@]45CCCN4C[C@H](F)C5)nc13)N1CCCC[C@@](F)(COCCCCc3c(Cl)cc4[nH]ncc4c3-2)C1 (single isomer, unassigned) [Example 399] | 0.004
CC12COCCN(C1)c1nc(OC[C@@]34CCCN3C[C@H](F)C4)nc3c(F)c(ncc13)-c1c(c(Cl)cc3[nH]ncc13)CCCc1nc2no1 (mixture of isomers) [Example 379, (1RS)-10-chloro-33-fluoro-24-(((2R,7a.S)-2-fluorotetrahydro-1H-pyrrolo[1,2-α]pyrrol-7a(5H)-yl)methoxy)-1-methyl-4,30-dioxa-3,13,14,19,23,25,27,34-octaazaheptacyclo[25.4.1.1~2,5~.1~18,22~.0~9,17~.0~12,16~.0~21,26~]tetratriaconta-2,5(34),9,11,14,16,18(33),19,21,23,25-undecaene] | 0.009

Next, values leading:

IC50 [µM] | Compound
0.005 | Fc1c2ncc3c(nc(OC[C@@]45CCCN4C[C@H](F)C5)nc13)N1CCCCC(C1)c1noc(n1)CCCc1c(Cl)cc3[nH]ncc3c1-2 (mixture of isomers) [Example 382, (1RS)-10-chloro-33-fluoro-24-(((2R,7a.S)-2-fluorotetrahydro-1H-pyrrolo[1,2-α]pyrrol-7a(5H)-yl)methoxy)-4-oxa-3,13,14,19,23,25,27,34-octaazaheptacyclo[25.4.1.1~2,5~.1~18,22~.0~9,17~0~12,16~.0~21,26~]tetratriaconta-2,5(34),9,11,14,16,18(33),19,21,23,25-undecaene]
0.006 | O[C@H]1C[C@H]2COCCCCc3c(Cl)cc4[nH]ncc4c3-c3ncc4c(nc(OC[C@@]56CCCN5C[C@H](F)C6)nc4c3F)N(C1)C2 (single isomer, unassigned) [Example 407]
3.96 | Fc1c2ncc3c(nc(OC[C@@]45CCCN4C[C@H](F)C5)nc13)N1CCO[C@@H](C1)c1coc(n1)CCCc1c(Cl)cc3[nH]ncc3c1-2 (single isomer, unassigned) [Example 389]
0.003 | O=C1CCCCc2c(Cl)cc3[nH]ncc3c2-c2ncc3c(nc(OC[C@@]45CCCN4C[C@H](F)C5)nc3c2F)N2CC[C@@H]3[C@H](C2)N1CC3(F)F (single isomer, unassigned) [Example 403]
3.73 | Fc1c2ncc3c(nc(OC[C@@]45CCCN4C[C@H](F)C5)nc13)N1CCC[C@@H](C1)c1cnc(o1)CCCc1c(Cl)cc3[nH]ncc3c1-2 (single isomer, unassigned) [Example 386]
